From publication PMC6273912, “Novel 5-Substituted 2-(Aylmethylthio)-4-chloro-N-(5-aryl-1,2,4-triazin-3-yl)benzenesulfonamides: Synthesis, Molecular Structure, Anticancer Activity, Apoptosis-Inducing Activity and Metabolic Stability” (Molecules, 2016) come the findings set out here.

The subject of one series is HCT-116 (colon cancer). Briefly: MTT cell viability assay, HCT-116. The format is cell-based, human. The note with it: Homo sapiens, HCT-116, 72 h, 72 h of incubation, mean ± SD. The procedure:
(§1) All chemicals, if not stated otherwise, were obtained from Sigma-Aldrich (St. Louis, MO, USA). The MCF-7 cell line was purchased from Cell Lines Services (Eppelheim, Germany), the HeLa and HCT-116 cell lines were obtained from the Department of Microbiology, Tumor and Cell Biology, Karolinska Institute (Stockholm, Sweden). Cells were cultured in Dulbecco’s modified Eagle’s medium (DMEM) supplemented with 10% fetal bovine serum, 2 mM glutamine, 100 units/mL penicillin, and 100 μg/mL streptomycin. Cultures were maintained in a humidified atmosphere with 5% CO2 at 37 °C in an incubator (HeraCell, Heraeus, Langenselbold, Germany).
(§2) Cell viability was determined using the MTT (3-(4,5-dimethylthiazol-2-yl)-2,5-diphenyl-tetrazoliumbromide) assay. Stock solutions of the studied compounds were prepared in 100% DMSO. […] Cells were seeded in 96-well plates at a density of 5 × 10^3 cells/well and treated for 72 h with the examined compounds in the concentration range 1–100 μM (1, 10, 25, 50 and 100 μM). Following treatment, MTT (0.5 mg/mL) was added to the medium and cells were further incubated for 2 h at 37 °C. Cells were lysed with DMSO and the absorbance of the formazan solution was measured at 550 nm with a plate reader (1420 multilabel counter, Victor, Jügesheim, Germany). […] The experiment was performed in triplicate. Values are expressed as the mean ± SD of at least three independent experiments.

A further series concerns HeLa (cervical cancer). Description: MTT cell viability assay, HeLa. The class given is cell-based, human. As to conditions: Homo sapiens, 72 h, 72 h of incubation, mean ± SD. The protocol:
as §1, §2

The test system of another series is MCF-7 (breast cancer). Description: MTT cell viability assay, MCF-7. The format is cell-based, human. As to conditions: Homo sapiens, MCF7, 72 h of incubation, mean ± SD. The protocol: as §1, §2
The test system of another series is HCT-116, HeLa and MCF-7. Description: MTT cell viability assay, all tested cell lines together. As to conditions: Homo sapiens; average over HCT-116, HeLa and MCF-7; read-out: average IC50 against all tested cell lines. The class given is cell-based. The procedure: as §1, §2
Series [1] concerns MCF-7. Description: Cell cycle analysis (sub-G1, DAPI flow cytometry), MCF-7. The format is cell-based, human. As to conditions: MCF-7, 24 h, mean ± SD. The protocol: One of the most common mechanisms in anticancer drug treatment is changes in cell cycle, which can be measured by DNA content. Cell cycle distribution in HCT-116, HeLa and MCF-7 cells was examined to determine cycle arrest and/or presence of sub-G1 after treatment with compounds 37 and 46. […] Cell populations data are expressed as the mean ± SD of at least three independent experiments.
Following treatment, cells were fixed in cold 70% ethanol for 30 min. Fixed cells were stained for 15 min in buffer containing 500 μg/mL RNAse A (EURx, Gdansk, Poland) and 2.5 μg/mL of DAPI (Sigma-Aldrich, Munich, Germany). The fluorescence of DAPI was measured at 440 ± 40 nm with a flow cytometer (LSR II, BD Biosciences, Mountain View, CA, USA). Each experiment was performed at least in triplicate. Data were analyzed off-line using the BD FACSDiva (BD Biosciences).

Series [2] relates to MCF-7. Briefly: Mitochondrial membrane potential (JC-1), MCF-7. The class given is cell-based, human. The note with it: MCF-7, 24 h, low and moderate concentrations. The protocol:
Loss of the mitochondrial membrane potential (Δψm) is one of the earliest indicators of an apoptosis. It can be detected using fluorescent dye JC-1 (5,5′,6,6′-tetrachloro-1,1′,3,3′-tetraethylbenzimidazolylcarbocyanine iodide) exited with blue laser. JC-1 spontaneously forms dimer complexes (J aggregates) with red fluorescent or remain as a monomers with green fluorescence in cells with high and low Δψm, respectively.
Half an hour before the end of 24 h-treatment 2.5 μg/mL of JC-1 (5,5′,6,6′-tetrachloro-1,1′,3,3′-tetraethylbenzimidazolylcarbocyanine iodide) was added to the cell medium. As a negative control 100 μM CCCP (carbonyl cyanide 3-chlorophenylhydrazone) was used 15 min before JC-1 treatment. Following treatment cells were twice washed with PBS and analyzed with flow cytometer (LSR II, BD Biosciences).
Green and red fluorescence were observed using FL-1 (530 ± 30 nm) and FL-2 (585 ± 42 nm) channels, respectively. Percentage of cell population in red or green fluorescence gate indicated the level of Δψm. Decreasing red fluorescence cell population indicated lower Δψm.

A short description of series [3]: Metabolic stability with human liver microsomes and NADPH. The class given is in vitro ADME. The note with it: liver microsomes. The procedure: Stock solutions of studied compounds were prepared at concentration of 10 mM in DMSO. […] Incubation mixture contained 10 μM of a studied derivative, 1 mM of NADPH (Sigma-Aldrich) and 0.5 mg/mL of human liver microsomes (HLM, Sigma-Aldrich) in potassium phosphate buffer (0.1 M, pH 7.4). Incubation was carried out in thermostat at 37 °C and started by addition of studied compound. 50 μL samples were taken after 5, 15, 30, 45 and 60 min. Enzymatic reaction was terminated by the addition of the equal volume of ice-cold acetonitrile containing 10 μM of alprazolam (Sigma-Aldrich) serving as internal standard (IS). Control incubations were performed without NADPH to assess chemical instability. After collection, samples were immediately centrifuged (10 min, 10,000 rpm) and resulted supernatant was directly analyzed or kept in −80 °C until LC-MS analysis. Natural logarithm of a compound over IS peak area ratio was plotted versus incubation time. Metabolic half-time (t1/2) was calculated from the slope of the linear regression, as reported in [48].
LC-MS analysis was performed on an Agilent 1260 system coupled to SingleQuad 6120 mass spectrometer (Agilent Technologies, Santa Clara, CA, USA). Ascentis Express ES-CN (2.1 mm × 100 mm, 2.7 μm, Supelco Analytical, Bellefonte, PA, USA) was used in reversed-phase mode with gradient elution starting with 50% of phase A (10 mM ammonium formate in water) and 50% of phase B (10 mM ammonium formate in acetonitrile-water mixture, 95:5 v/v). […] Total analysis time was 10 min at 25 °C, flow rate was 0.4 mL/min and the injection volume was 20 μL. The mass spectrometer was equipped with electrospray ion source and operated in positive ionization. Mass analyzer was set individually to each compound to detect [M + H]^+ pseudomolecular ions. MSD parameters of the ESI source were as follows: nebulizer pressure 50 psig (N2), drying gas […] (N2), drying gas temperature 300 °C, capillary voltage 3.5 kV, fragmentor voltage 100 V.

Read-outs that look alike come from different tables or passages of the source.

For `O=C(Nc1ccc(Cl)cc1)c1cc(S(=O)(=O)Nc2nncc(-c3ccc(C(F)(F)F)cc3)n2)c(SCc2ccccc2)cc1Cl` [Compound 46, 4-Benzylthio-2-chloro-N-(4-chlorophenyl)-5-{N-[5-(4-trifluoromethylphenyl)-1,2,4-triazin-3-yl]sulfamoyl}-benzamide], the IC50 in the series on HCT-116 (colon cancer) was 64 ± 1 µM; in the series on HeLa (cervical cancer), 80 ± 2 µM; in the series with MCF-7 (breast cancer) it was 59 ± 2 µM; with HCT-116, HeLa and MCF-7, < 71 µM. In the series on MCF-7 [1], the Sub-G1 cell population is 20% ± 5.6%. Moreover, in the series with MCF-7 [2], the “effect on mitochondrial membrane potential (Δψm)” value is listed as “remarkably decreased Δψm”. The half-life at 10 μM in series [3] (pH 7.4, human liver microsomes 0.5 mg/mL, 1 mM NADPH, 10 μM compound, pH 7.4, 37 °C, up to 60 min, read-out: In Vitro Metabolic Half-Life t1/2) is > 60 min; in series [3] (pH 7.4, value in parentheses beside >60, beyond the 60 min incubation, human liver microsomes, NADPH, read-out: In Vitro Metabolic Half-Life t1/2 (min), value in parentheses), 78.1 min.
